Test results reported in patent US20260078130A1, “NAMPT MODULATORS, PREPARATIONS, AND USES THEREOF” (SIRONAX LTD., priority 2022, published 2026).
Read-outs that look alike come from different tables or passages of the source.

Key:
[1] = target: T1, human enzyme NAMPT (full length) (Homo sapiens, UniProt P43490); experiment: NMN fluorescence biochemical assay (stimulation of NMN synthesis by NAMPT); settings: for EC50: concentration giving half-maximal activation, read-out: Enzymatic EC50; for Enzymatic Emax: fold change of maximal activation compared to DMSO
T1 construct: human enzyme NAMPT (full length)
Summary of the method: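 Full-length human NAMPT (100 nM) was preincubated 15 min at 37 °C with compound in 50 mM Tris-HCl pH 7.5, 10 mM MgCl2, 2 mM DTT, then reacted 1 h at 37 °C with 50 μM NAM, 100 μM PRPP, 4 mM ATP (stated solution concentrations). NMN was derivatised with acetophenone/KOH then formic acid and read at Ex/Em 382/445 nm; EC50 and Emax (fold over DMSO) reported.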

[2] = tested on: endogenous NAMPT in U2OS cells; experiment: Cellular NAD+ modulation assay (NAD/NADH-Glo, U2OS cells); assay type: cell-based; settings: Homo sapiens; for maximal fold induction: read-out: Cellular Emax
Summary of the method: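 Endogenous NAMPT stimulation in U2OS cells treated with compound dilution series for 24 h at 37 °C. Cells lysed with DTAB base, acid-treated 15 min at 60 °C, neutralized, NAD+ read by NAD/NADH-Glo luminescence after 40 min at room temperature. EC50 and Emax (fold over DMSO) derived.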

[3] = NMN synthesis by purified human NAMPT (100 nM)
[4] = 24 hours incubation with compound
[5] = NMN fluorescence assay, purified human NAMPT 100 nM
[6] = 24 hours incubation, cellular NAD+

T1 sequence (P43490 whole entry): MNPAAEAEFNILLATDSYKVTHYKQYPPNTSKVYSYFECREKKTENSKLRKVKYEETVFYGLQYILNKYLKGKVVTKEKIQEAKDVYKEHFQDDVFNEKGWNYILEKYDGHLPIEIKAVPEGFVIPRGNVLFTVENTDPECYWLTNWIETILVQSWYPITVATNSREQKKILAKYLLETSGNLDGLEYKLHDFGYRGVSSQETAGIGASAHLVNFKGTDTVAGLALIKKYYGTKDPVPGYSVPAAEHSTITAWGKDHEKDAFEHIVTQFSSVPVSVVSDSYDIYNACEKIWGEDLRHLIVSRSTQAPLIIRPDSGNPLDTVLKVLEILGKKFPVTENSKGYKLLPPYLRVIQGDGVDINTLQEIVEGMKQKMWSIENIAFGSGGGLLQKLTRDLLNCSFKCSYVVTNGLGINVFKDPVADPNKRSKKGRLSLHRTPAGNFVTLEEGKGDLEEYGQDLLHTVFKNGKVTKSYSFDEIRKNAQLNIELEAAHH

Row | EC50 [1, 3] | Enzymatic Emax [1] | EC50 [2, 4] | EC50 [1, 5] | EC50 [2, 6] | Compound | maximal fold induction [2, 4] | maximal fold induction [2, 6]
1 | < 500 nM | A (A>3) | < 500 nM | – | – | Cn1cc(Cl)c(CC2c3ccccc3C(=O)N2Cc2ccc3[nH]c(=O)oc3c2)n1 (centres unmarked) [Compound 232, 6-((1-((4-chloro-1-methyl-1H-pyrazol-3-yl)methyl)-3-oxoisoindolin-2-yl)methyl)benzo[d]oxazol-2(3H)-one] | > 1.5 | –
2 | – | B (3≥B>2) | – | < 500 nM | < 500 nM | Cn1nc(C(F)F)c(Cl)c1CC1c2ccccc2C(=O)N1Cc1ccc2[nH]nnc2c1 (centres unmarked) [Compound 361, 2-((1H-benzo[d][1,2,3]triazol-5-yl)methyl)-3-((4-chloro-3-(difluoromethyl)-1-methyl-1H-pyrazol-5-yl)methyl)isoindolin-1-one] | – | > 1.5
3 | – | B (3≥B>2) | – | ≥ 5000 nM | 500 to 5000 nM | Cc1nnn2cc(CN3C(=O)c4ccccc4C3Cc3c(Cl)cnn3C)ccc12 (centres unmarked) [Compound 627, 3-((4-chloro-1-methyl-1H-pyrazol-5-yl)methyl)-2-((3-methyl-[1,2,3]triazolo[1,5-a]pyridin-6-yl)methyl)isoindolin-1-one] | – | 1.2 to 1.5
4 | – | B (3≥B>2) | – | 500 to 5000 nM | < 500 nM | COc1ccc(CN2C(=O)c3ccccc3C2Cc2c(Cl)cnn2C)cc1F (centres unmarked) [Compound 517, 3-((4-chloro-1-methyl-1H-pyrazol-5-yl)methyl)-2-(3-fluoro-4-methoxybenzyl)isoindolin-1-one] | – | 1.2 to 1.5
5 | – | B (3≥B>2) | – | < 500 nM | < 500 nM | Cn1ncc(Cl)c1CC1c2scnc2C(=O)N1Cc1ccc(O)cc1 (centres unmarked) [Compound 430, 6-((4-chloro-1-methyl-1H-pyrazol-5-yl)methyl)-5-(4-hydroxybenzyl)-5,6-dihydro-4H-pyrrolo[3,4-d]thiazol-4-one] | – | > 1.5
6 | – | A (A>3) | – | 500 to 5000 nM | < 500 nM | Cc1noc(Cl)c1CC1c2ccccc2C(=O)N1Cc1ccc2[nH]nnc2c1 (centres unmarked) [Compound 357, 2-((1H-benzo[d][1,2,3]triazol-5-yl)methyl)-3-((5-chloro-3-methylisoxazol-4-yl)methyl)isoindolin-1-one] | – | > 1.5
7 | ≥ 5000 nM | B (3≥B>2) | 5000 to 50000 nM | – | – | O=C1c2ccccc2C(=O)N1Cc1ccc(O)cc1 [Compound 11, 2-(4-hydroxybenzyl)isoindoline-1,3-dione] | 1.2 to 1.5 | –
8 | – | A (A>3) | – | < 500 nM | 500 to 5000 nM | O=C1c2ccccc2C(Cc2nc(Br)sc2Cl)N1Cc1ccc2[nH]nnc2c1 (centres unmarked) [Compound 448, 2-((1H-benzo[d][1,2,3]triazol-5-yl)methyl)-3-((2-bromo-5-chlorothiazol-4-yl)methyl)isoindolin-1-one] | – | > 1.5
9 | ≥ 5000 nM | A (A>3) | 500 to 5000 nM | – | – | CC1c2cc(NC3CCCC3)ccc2C(=O)N1Cc1ccc2[nH]c(=O)oc2c1 (centres unmarked) [Compound 81, 6-((5-(cyclopentylamino)-3-methyl-1-oxoisoindolin-2-yl)methyl)benzo[d]oxazol-2(3H)-one] | 1.2 to 1.5 | –
10 | 500 to 5000 nM | B (3≥B>2) | 500 to 5000 nM | – | – | Cc1cccc2c1CN(Cc1ccc(O)cc1)C2=O [Compound 34, 2-(4-hydroxybenzyl)-4-methylisoindolin-1-one] | 1.2 to 1.5 | –
11 | ≥ 5000 nM | A (A>3) | 500 to 5000 nM | – | – | Cc1ccc2c(c1)C(C)N(Cc1ccc3[nH]c(=O)oc3c1)C2=O (single isomer, unassigned) [Compound 163] | > 1.5 | –
12 | – | B (3≥B>2) | – | 500 to 5000 nM | < 500 nM | CN1C[C@]2(C[C@H](CN3C(=O)c4ccccc4[C@@H]3Cc3c(Cl)cnn3C)C2)OC1=O [Compound 551, (2s,4R)-2-(((S)-1-((4-chloro-1-methyl-1H-pyrazol-5-yl)methyl)-3-oxoisoindolin-2-yl)methyl)-7-methyl-5-oxa-7-azaspiro[3.4]octan-6-one] | – | > 1.5
13 | – | A (A>3) | – | < 500 nM | < 500 nM | Cn1c(=O)oc2cc(CN3C(=O)c4ccccc4C3Cc3c(Br)cccc3C#N)ccc21 (centres unmarked) [Compound 552, 3-bromo-2-((2-((3-methyl-2-oxo-2,3-dihydrobenzo[d]oxazol-6-yl)methyl)-3-oxoisoindolin-1-yl)methyl)benzonitrile] | – | > 1.5
14 | ≥ 5000 nM | A (A>3) | 500 to 5000 nM | – | – | Cn1cccc(CC2c3ccccc3C(=O)N2Cc2ccc3[nH]c(=O)oc3c2)c1=O (centres unmarked) [Compound 234, 6-((1-((1-methyl-2-oxo-1,2-dihydropyridin-3-yl)methyl)-3-oxoisoindolin-2-yl)methyl) benzo[d]oxazol-2(3H)-one] | > 1.5 | –
15 | – | C (2≥C) | – | ≥ 5000 nM | 5000 to 50000 nM | Cn1ncc(Cl)c1CC1c2ccccc2C(=O)N1Cc1ccc(Cl)cc1 (centres unmarked) [Compound 573, 3-((4-chloro-1-methyl-1H-pyrazol-5-yl)methyl)-2-(4-chlorobenzyl)isoindolin-1-one] | – | ≤ 1.2
16 | – | B (3≥B>2) | – | 500 to 5000 nM | 500 to 5000 nM | COc1ccc(CN2C(=O)c3ccccc3C2Cc2c(C)ncnc2C#N)cn1 (centres unmarked) [Compound 595, 5-((2-((6-methoxypyridin-3-yl)methyl)-3-oxoisoindolin-1-yl)methyl)-6-methylpyrimidine-4-carbonitrile] | – | > 1.5
17 | < 500 nM | A (A>3) | < 500 nM | – | – | Cc1ccnc(C#N)c1CC1c2ccccc2C(=O)N1Cc1ccc2[nH]nnc2c1 (centres unmarked) [Compound 284, 3-((2-((1H-benzo[d][1,2,3]triazol-5-yl)methyl)-3-oxoisoindolin-1-yl)methyl)-4-methylpicolinonitrile] | 1.2 to 1.5 | –
18 | < 500 nM | B (3≥B>2) | < 500 nM | – | – | N#Cc1cccc(F)c1C[C@H]1c2ccccc2C(=O)N1Cc1ccc2[nH]c(=O)oc2c1 [Compound 172, (S)-3-fluoro-2-((3-oxo-2-((2-oxo-2,3-dihydrobenzo[d]oxazol-6-yl)methyl)isoindolin-1-yl)methyl)benzonitrile] | > 1.5 | –
19 | – | A (A>3) | – | 500 to 5000 nM | < 500 nM | Cn1ncc(Cl)c1CC1c2cc(Br)ccc2C(=O)N1CC1CC2(CNC(=O)O2)C1 (centres unmarked) [Compound 450, 2-((5-bromo-3-((4-chloro-1-methyl-1H-pyrazol-5-yl)methyl)-1-oxoisoindolin-2-yl)methyl)-5-oxa-7-azaspiro[3.4]octan-6-one] | – | > 1.5
20 | – | A (A>3) | – | ≥ 5000 nM | 500 to 5000 nM | COc1ccc(CN2C(=O)c3ccc(C4CC4)cc3C2Cc2c(C)ncnc2C#N)cn1 (centres unmarked) [Compound 640, 5-((6-cyclopropyl-2-((6-methoxypyridin-3-yl)methyl)-3-oxoisoindolin-1-yl)methyl)-6-methylpyrimidine-4-carbonitrile] | – | 1.2 to 1.5
21 | ≥ 5000 nM | A (A>3) | 500 to 5000 nM | – | – | CC1c2ccccc2C(=O)N1Cc1ccc2[nH]c(=O)oc2c1 (centres unmarked) [Compound 54, 6-((1-methyl-3-oxoisoindolin-2-yl)methyl)benzo[d]oxazol-2(3H)-one] | > 1.5 | –
22 | ≥ 5000 nM | B (3≥B>2) | 5000 to 50000 nM | – | – | CCC1c2ccccc2C(=O)N1Cc1ccc2[nH]c(=O)oc2c1 (centres unmarked) [Compound 53, 6-((1-ethyl-3-oxoisoindolin-2-yl)methyl) benzo[d]oxazol-2(3H)-one] | 1.2 to 1.5 | –
23 | – | B (3≥B>2) | – | 500 to 5000 nM | < 500 nM | CN1CCn2c(cc(Cl)c2CC2c3ccccc3C(=O)N2CC2CC3(CNC(=O)O3)C2)C1 (centres unmarked) [Compound 484, 2-((1-((7-chloro-2-methyl-1,2,3,4-tetrahydropyrrolo[1,2-a]pyrazin-6-yl)methyl)-3-oxoisoindolin-2-yl)methyl)-5-oxa-7-azaspiro[3.4]octan-6-one] | – | 1.2 to 1.5
24 | < 500 nM | B (3≥B>2) | < 500 nM | – | – | Cc1ccnc(C#N)c1CC1c2ccccc2C(=O)N1CC1CC2(CNC(=O)O2)C1 (centres unmarked) [Compound 308, 4-methyl-3-((3-oxo-2-((6-oxo-5-oxa-7-azaspiro[3.4]octan-2-yl)methyl)isoindolin-1-yl)methyl)picolinonitrile] | > 1.5 | –
25 | – | A (A>3) | – | < 500 nM | < 500 nM | N#Cc1cncc(C#N)c1CC1c2ccccc2C(=O)N1Cc1ccc2[nH]nnc2c1 (centres unmarked) [Compound 351, 4-((2-((1H-benzo[d][1,2,3]triazol-5-yl)methyl)-3-oxoisoindolin-1-yl)methyl)pyridine-3,5-dicarbonitrile] | – | > 1.5
26 | ≥ 5000 nM | C (2≥C) | 5000 to 50000 nM | – | – | O=C1c2ccc(N3CCCC3)cc2CN1Cc1ccc2[nH]c(=O)oc2c1 [Compound 300, 6-((1-oxo-5-(pyrrolidin-1-yl)isoindolin-2-yl)methyl)benzo[d]oxazol-2(3H)-one] | 1.2 to 1.5 | –
